In ChEMBL document CHEMBL1201862, “PubChem BioAssay data set” (2004):
The source made the active and inactive calls.

How the values were obtained:
[1] = viability of PTEN-deleted HCT116 cells – cell-based, HCT116 PTEN knockout, dose response (AID 1047); assay type: functional;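 also: HCT116 colon tumor cells with PTEN knocked out; cells exposed to compound for 60 hours before readout; potency for loss of cell viability measured by luminescence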
[2] = Luminescence Cell-Based Dose Retest to Confirm Inhibitors of Cancer Stem Cells. [Related pubchem assays (depositor defined):AID2717, AID2721]; assay type: functional; settings: Homo sapiens
Phospholipase A2 = Phospholipase A2 (Homo sapiens, UniProt P04054); assay type: functional;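 also: confirmatory dose-response counterscreen on phospholipase A2, testing hits that came from an ultra-high-throughput screen for ATG4B inhibitors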
Phospholipase A2, sequence (P04054 whole entry): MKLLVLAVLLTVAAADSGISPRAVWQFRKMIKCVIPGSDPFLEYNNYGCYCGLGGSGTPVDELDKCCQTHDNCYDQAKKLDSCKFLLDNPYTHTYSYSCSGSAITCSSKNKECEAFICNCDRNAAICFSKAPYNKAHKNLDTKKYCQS

[3] = viability of HCT116 lacking mutant beta-catenin – cell-based, human colon tumor, dose response (AID 1045); assay type: functional;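 also: HCT116 colon tumor cells with beta catenin knocked out; cells exposed to compound for 60 hours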
Cysteine protease ATG4B = target: T1, Cysteine protease ATG4B (Homo sapiens, UniProt Q9Y4P1); assay type: functional;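 also: Fluorescence-based dose-response confirmation assay measuring inhibition of ATG4B activity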
T1 sequence (Q9Y4P1 whole entry): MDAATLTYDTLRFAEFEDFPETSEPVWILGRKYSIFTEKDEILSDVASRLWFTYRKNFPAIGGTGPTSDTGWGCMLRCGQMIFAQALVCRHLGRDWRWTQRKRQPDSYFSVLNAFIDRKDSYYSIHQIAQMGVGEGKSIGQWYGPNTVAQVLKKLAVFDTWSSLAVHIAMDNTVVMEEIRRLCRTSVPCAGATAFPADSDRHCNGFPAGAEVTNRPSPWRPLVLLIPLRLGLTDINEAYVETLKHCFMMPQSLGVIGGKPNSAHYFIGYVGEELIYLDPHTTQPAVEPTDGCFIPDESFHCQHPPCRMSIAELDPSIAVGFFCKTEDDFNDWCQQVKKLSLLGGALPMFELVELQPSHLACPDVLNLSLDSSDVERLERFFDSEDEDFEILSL

Galanin receptor type 3 = target: T2, Galanin receptor type 3 (Homo sapiens, UniProt O60755); test: Fluorescence-based cell-based primary high throughput dose response assay to identify antagonists of the Galanin Receptor 3 (GalR3).; assay type: functional
T2 sequence (O60755 whole entry): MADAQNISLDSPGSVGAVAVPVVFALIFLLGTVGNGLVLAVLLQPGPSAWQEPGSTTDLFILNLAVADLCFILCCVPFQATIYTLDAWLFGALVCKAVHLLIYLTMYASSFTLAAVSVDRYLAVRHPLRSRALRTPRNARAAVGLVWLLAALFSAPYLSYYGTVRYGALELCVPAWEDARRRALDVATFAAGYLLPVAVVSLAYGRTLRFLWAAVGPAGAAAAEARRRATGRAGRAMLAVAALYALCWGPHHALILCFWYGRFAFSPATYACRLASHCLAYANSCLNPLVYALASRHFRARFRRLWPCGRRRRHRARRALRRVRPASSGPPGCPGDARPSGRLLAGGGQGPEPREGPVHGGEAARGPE

BJ [4] = test: BJ-TERT fibroblast viability loss – cell-based, RAS-independent, luminescence, dose response (AID 1933); assay type: functional; settings: Homo sapiens
BJ [5] = test: BJ-TERT-LT-ST fibroblast viability loss – cell-based, RAS-independent, luminescence, dose response (AID 1935); assay type: functional; settings: Homo sapiens;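 also: BJ fibroblasts immortalized with TERT plus LT and ST oncogenes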
[6] = DRD fibroblast viability loss – cell-based, non-viral oncogenic, luminescence, dose response (AID 1934); assay type: functional; settings: Homo sapiens
cells = assay type: functional, cell-based; settings: HEK-CNG
BJ [7] = test: cells; assay type: functional, cell-based; settings: Homo sapiens
INS1 = test: INS-1E survival protection against cytokine death – cell-based, luminescence, retest, dose response (AID 449756); assay type: functional; settings: Rattus norvegicus;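 also: cell death triggered by IL-1 beta plus TNF-alpha plus IFN-gamma mixture; protective hits raise ATP signal compared with cytokine alone wells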
[8] = target: T3, Zinc finger protein mex-5 (Caenorhabditis elegans, UniProt Q9XUB2); test: potency of MEX-5 RNA-binding blockers – biochemical, C. elegans, fluorescence polarization, dose response (AID 1960)
T3 sequence (Q9XUB2 whole entry): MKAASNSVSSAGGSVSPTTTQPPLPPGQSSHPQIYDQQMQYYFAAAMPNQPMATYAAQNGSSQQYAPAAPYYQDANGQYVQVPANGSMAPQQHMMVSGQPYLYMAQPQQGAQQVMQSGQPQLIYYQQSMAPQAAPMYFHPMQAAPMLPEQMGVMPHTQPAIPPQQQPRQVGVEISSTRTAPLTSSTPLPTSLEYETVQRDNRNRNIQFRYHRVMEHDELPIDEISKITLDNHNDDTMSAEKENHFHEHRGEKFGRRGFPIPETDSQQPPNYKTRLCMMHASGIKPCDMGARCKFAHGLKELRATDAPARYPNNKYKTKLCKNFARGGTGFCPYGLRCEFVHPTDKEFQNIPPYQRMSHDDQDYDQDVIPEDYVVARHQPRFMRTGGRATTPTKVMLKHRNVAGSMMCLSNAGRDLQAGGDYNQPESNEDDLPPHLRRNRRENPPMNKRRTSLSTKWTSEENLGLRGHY

[9] = target: 26S proteasome non-ATPase regulatory subunit 14 (Homo sapiens, UniProt O00487); test: inhibition of proteasome subunit RPN11 – biochemical, fluorescence polarization, uHTS hits, confirmation (AID 602368); assay type: functional
26S proteasome non-ATPase regulatory subunit 14, sequence (O00487 whole entry): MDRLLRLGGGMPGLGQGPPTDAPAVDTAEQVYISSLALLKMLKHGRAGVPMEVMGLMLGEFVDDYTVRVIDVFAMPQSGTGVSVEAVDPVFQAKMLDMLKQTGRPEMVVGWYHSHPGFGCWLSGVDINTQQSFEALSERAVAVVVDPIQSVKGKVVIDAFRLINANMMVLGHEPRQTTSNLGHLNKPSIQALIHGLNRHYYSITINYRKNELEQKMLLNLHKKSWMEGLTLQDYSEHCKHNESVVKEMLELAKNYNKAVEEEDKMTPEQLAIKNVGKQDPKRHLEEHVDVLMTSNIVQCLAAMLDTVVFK

Prothrombin = Prothrombin (Bos taurus, UniProt P00735); test: thrombin protease inhibitors – biochemical, fluorescence polarization, uHTS hits, dose response (AID 602369); assay type: functional
[10] = target: T4, RNA-binding protein pos-1 (Caenorhabditis elegans, UniProt G5EF15); test: disruptors of C. elegans POS-1 RNA interaction – biochemical, fluorescence polarization, dose response (AID 1964);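 also: purified POS-1 fused to maltose binding protein made in E. coli; potency of compounds blocking POS-1 binding to fluorescent RNA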
T4 sequence (G5EF15 whole entry): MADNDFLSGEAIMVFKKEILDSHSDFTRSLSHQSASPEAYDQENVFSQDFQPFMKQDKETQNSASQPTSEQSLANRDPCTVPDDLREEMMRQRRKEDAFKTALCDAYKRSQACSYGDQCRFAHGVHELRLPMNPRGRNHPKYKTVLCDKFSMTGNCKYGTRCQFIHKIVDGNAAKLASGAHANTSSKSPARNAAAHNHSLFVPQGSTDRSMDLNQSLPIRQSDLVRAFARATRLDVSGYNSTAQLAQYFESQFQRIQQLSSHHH

[11] = target: 72 kDa type IV collagenase (Homo sapiens, UniProt P08253); test: Dose Response validation of uHTS RPN11 inhibitor hits using a MMP-2 Fluorescence assay.; assay type: functional
72 kDa type IV collagenase, sequence (P08253 whole entry): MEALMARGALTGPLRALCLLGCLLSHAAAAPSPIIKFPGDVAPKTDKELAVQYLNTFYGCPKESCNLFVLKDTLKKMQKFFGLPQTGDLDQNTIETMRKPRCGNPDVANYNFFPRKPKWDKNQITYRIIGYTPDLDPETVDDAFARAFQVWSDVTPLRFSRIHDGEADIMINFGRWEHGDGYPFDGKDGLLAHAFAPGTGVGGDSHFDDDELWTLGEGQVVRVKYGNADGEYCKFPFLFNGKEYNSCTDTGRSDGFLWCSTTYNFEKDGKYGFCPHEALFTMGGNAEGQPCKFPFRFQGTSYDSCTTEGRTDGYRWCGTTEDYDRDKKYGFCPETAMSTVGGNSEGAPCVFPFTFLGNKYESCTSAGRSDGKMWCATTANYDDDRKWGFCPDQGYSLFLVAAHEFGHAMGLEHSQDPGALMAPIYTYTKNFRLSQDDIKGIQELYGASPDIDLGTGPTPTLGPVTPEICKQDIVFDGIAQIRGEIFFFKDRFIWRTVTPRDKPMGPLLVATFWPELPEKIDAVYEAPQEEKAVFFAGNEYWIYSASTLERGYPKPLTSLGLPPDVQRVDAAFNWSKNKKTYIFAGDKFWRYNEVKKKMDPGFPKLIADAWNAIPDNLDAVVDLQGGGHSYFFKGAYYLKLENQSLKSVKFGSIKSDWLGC

[12] = target: T5, Histone-lysine N-methyltransferase NSD2 (Homo sapiens, UniProt O96028); assay type: biochemical
T5 sequence (O96028 whole entry): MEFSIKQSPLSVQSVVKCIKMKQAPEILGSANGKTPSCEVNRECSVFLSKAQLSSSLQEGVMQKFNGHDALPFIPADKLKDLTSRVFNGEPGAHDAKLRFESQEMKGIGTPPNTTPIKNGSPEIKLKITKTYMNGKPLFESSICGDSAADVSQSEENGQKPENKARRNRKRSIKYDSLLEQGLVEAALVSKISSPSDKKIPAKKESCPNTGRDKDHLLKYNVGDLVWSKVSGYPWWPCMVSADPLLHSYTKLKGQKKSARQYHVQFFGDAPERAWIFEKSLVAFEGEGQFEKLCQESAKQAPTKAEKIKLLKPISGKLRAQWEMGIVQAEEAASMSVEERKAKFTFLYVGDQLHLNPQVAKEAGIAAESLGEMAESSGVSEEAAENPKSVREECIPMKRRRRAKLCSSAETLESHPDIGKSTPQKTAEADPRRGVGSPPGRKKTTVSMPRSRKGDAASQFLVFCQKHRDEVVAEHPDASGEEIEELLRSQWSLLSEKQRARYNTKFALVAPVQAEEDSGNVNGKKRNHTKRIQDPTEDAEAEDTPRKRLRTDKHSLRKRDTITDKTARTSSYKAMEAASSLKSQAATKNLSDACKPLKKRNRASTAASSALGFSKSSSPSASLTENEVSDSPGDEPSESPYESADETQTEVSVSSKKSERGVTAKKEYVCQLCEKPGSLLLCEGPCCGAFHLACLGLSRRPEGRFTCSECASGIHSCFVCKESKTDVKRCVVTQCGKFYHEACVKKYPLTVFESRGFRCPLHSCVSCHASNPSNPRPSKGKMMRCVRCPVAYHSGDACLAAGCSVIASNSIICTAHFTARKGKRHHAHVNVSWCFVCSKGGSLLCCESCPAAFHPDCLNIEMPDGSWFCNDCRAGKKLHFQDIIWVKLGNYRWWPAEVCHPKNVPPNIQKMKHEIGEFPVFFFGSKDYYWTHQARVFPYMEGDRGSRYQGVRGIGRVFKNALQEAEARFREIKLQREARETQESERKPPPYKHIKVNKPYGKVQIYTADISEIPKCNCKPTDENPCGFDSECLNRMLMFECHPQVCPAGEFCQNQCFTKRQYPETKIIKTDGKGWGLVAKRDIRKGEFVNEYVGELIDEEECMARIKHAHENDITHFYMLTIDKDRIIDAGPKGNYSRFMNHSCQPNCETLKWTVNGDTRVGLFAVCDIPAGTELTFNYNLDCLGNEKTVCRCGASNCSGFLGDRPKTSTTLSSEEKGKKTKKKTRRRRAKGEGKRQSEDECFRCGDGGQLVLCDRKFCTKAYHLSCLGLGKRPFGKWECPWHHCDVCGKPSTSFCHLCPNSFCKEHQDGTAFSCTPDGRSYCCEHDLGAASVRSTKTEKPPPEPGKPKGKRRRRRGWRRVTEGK

With `C=C(C)Cn1c(SCC(=O)N/N=C/c2c(O)ccc3ccccc23)nc2ccccc2c1=O` the EC50 [1] was 19.5 µM (active), the AC50 [2] was 3.05 µM (active) and the IC50 (Phospholipase A2) was 7.98 µM (active). The EC50 [3] was 16.6 µM (active) and the IC50 (Cysteine protease ATG4B) was 13.3 µM (active).
In the case of `CC(C)(C)c1cc([N+](=O)[O-])cc(C(C)(C)C)c1O`, the IC50 (Galanin receptor type 3) is reported as 2 µM (active), the EC50 (BJ [4]) is reported as > 150 µM (not active) and the EC50 (BJ [5]) is reported as > 75 µM (inconclusive). For the same molecule, the EC50 [6] was 22 µM (active), the EC50 (cells) was > 29.9 µM (inactive) and the EC50 (BJ [7]) was > 150 µM (inconclusive). For the same molecule, the AC50 (INS1) was 4.45 µM (active).
In the case of `Cc1cc(/C=C(/C#N)c2nc3ccccc3[nH]2)c(C)n1-c1ccccc1C(=O)O`, the EC50 [8] is reported as > 300 µM (not active), the IC50 [9] is reported as 26.2 µM (active) and the IC50 (Prothrombin) is reported as 25.5 µM (active). The EC50 [10] was > 300 µM (not active) and the IC50 [11] was > 100 µM (inactive).
In the case of `CC1=Nc2ccccc2/C1=C\c1nc(-c2ccccc2)oc1O`, the IC50 [9] is reported as 4.18 µM (active), the IC50 (Prothrombin) is reported as 7.22 µM (active) and the IC50 [11] is reported as > 100 µM (inactive).
With `CCN(CC)CCCNC(=O)c1cc2c(Cl)nc3ccccc3c2s1` the AC50 [12] was 16.8 µM (active) and the AC50 [2] was 1.58 µM (active).
